Key:
[1] = tested on: central nervous system and renal afferent nerve; conditions: Gruber & Callahan 1989; Klein et al. 1985; Lin et al. 1987; cited from earlier work
rat MC3-R = rat MC3-R (Rattus norvegicus, UniProt P32244); assay: Intracellular cAMP production in recombinant MC3-R expressing human 293 cells; type: cell-based
Description: This property of cells expressing melanocortin receptors was used to analyze expression of MC3-R in cells transfected with the expression vectors described herein as follows.
Following hormone treatment, the cells were washed twice with phosphate buffered saline and intracellular cAMP extracted by lysing the cells with 1 ml of 60% ethanol.

pigmentation = conditions: Ling et al. 1979; Slominski et al. 1992; cited from earlier work

rat MC3-R, sequence (P32244 whole entry): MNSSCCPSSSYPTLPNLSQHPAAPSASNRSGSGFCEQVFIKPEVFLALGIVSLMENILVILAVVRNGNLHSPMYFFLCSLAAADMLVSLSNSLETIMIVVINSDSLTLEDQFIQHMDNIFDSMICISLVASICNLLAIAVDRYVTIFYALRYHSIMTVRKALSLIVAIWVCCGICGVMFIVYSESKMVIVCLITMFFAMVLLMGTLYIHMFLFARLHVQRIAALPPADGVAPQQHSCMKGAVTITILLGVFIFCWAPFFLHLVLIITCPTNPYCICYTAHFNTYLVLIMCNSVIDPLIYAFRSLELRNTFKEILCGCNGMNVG

Compound: CSCC[C@H](NC(=O)[C@@H](NC(=O)[C@@H](N)Cc1ccc(O)cc1)C(C)C)C(=O)NCC(=O)N[C@@H](Cc1c[nH]cn1)C(=O)N[C@@H](Cc1ccccc1)C(=O)N[C@@H](CCCNC(=N)N)C(=O)N[C@@H](Cc1c[nH]c2ccccc12)C(=O)N[C@@H](CC(=O)O)C(=O)N[C@@H](CCCNC(=N)N)C(=O)N[C@@H](Cc1ccccc1)C(N)=O [γ-MSH, γ-melanocyte stimulating hormone]
- pressor, cardioaccelerator and natriuretic actions [1]: potent pressor, cardioaccelerator and natriuretic actions
- potency rank among ligands (lowest EC50) (rat MC3-R): most potent ligand and the one having the lowest EC50
- ability to stimulate pigmentation (pigmentation): little or no ability to stimulate pigmentation

Source: US5994087A, “Mammalian melanocortin receptors and uses” (Oregon Health Sciences University, priority 1995, dated 1999)
